Experimental data from patent publication US6992073B2, “Use of N-acetyl-D-glucosamine in the manufacture of a medicament for treating cervical erosion” (Third Military Medical University, Chinese People's …, priority 2002, dated 2006).

Tests used:
Lactobacilli = assay: Liquid cultivation of Lactobacilli; assay type: cell-based
Source text: (§1) • 1. […] Experimental Results and Evaluation: • The experiment adopts a bio-wave model which is used to research the promoting wave function of the compound of formula (I). […] II. Toxicological Test of the Compound of Formula (I), including: • 1. acute toxicity test: including tests of administrating medicine by oral, Intravenous injection and maximum limit amount for administration; • 2. […] III. Test of Removing Pathogenic Microorganism by Resistance to Field Planting Action

[1] = test system: pathogenic microorganism such as Candida albicans, vagina Heamophilus; assay: Test of removing pathogenic microorganism by resistance to field planting action; assay type: cell-based; conditions: in situ bacterial field planting, qualitative and quantitative determination tests
Proteus Mirabilis = assay: Promoting wave test (bio-wave model on LB plate); assay type: cell-based
Source text: as §1

[2] = in vivo
Source text: as §1

cervix erosion = assay: Clinic test in patients with cervix erosion; assay type: in vivo, human beings; conditions: treating group 83 cases, positive medicament control group 60 cases
Source text: A spray formulation of 2% N-acetyl-D-glucosamine was applied to human beings, up to the end of August 1999, there were 123 cases of patients to be observed in total.

SMILES | growth of Lactobacilli (Lactobacilli) | effect on field planting growth of pathogenic microorganism [1] | sterilizing or bacteria-inhibiting effect [1] | promoting wave function (wave pattern of concentric rings) (Proteus Mirabilis) | acute test dosage relative to the injection dosage for human being [2] [times] | cured (number of cases) (cervix erosion) | effective (number of cases) (cervix erosion)
CC(=O)N[C@@H]1[C@@H](O)[C@H](O)[C@@H](CO)O[C@H]1O [compound of formula (I), N-acetyl-D-glucosamine] | can improve the growth of Lactobacilli | disabling pathogenic microorganism such as Candida albicans, vagina Heamophilus and etc. from field planting growth | substantially has no sterilizing or bacteria-inhibiting effect | many fine waves on each ring emerged | 300 | – | –
O=[N+]([O-])[O-].[Ag+] [AgNO3] | – | – | – | – | – | 5 | 8
